Experimental data reported in US20240327456A1, “CANCER THERAPEUTICS” (UNIVERSITAT DE BARCELONA, priority 2021, published 2024).
≈ marks a conversion by molar mass, not a printed value. Entries after “also recorded” stand apart in the source; their conditions may differ. Read-outs that look alike come from different tables or passages of the source. Blank lines part the entries; values can stand above or below the molecule they belong to. Numbered stars: 1 amine (or outer) side, 2 acyl side, 3 side chain; on linkers, the order of the positions; unused ones are H or OH. Square brackets hold non-standard residues; d marks the D form. Peptide text beside a SMILES is read from it. * marks the point of attachment. Diphenylacetyl = O=C(C(c1ccccc1)c1ccccc1)*; Phe(4-Me) = Cc1ccc(C[CH](N)C(=O)O)cc1; NMeβAla = CN(CCC(=O)[*:2])[*:1]; Cha = N[CH](CC1CCCCC1)C(=O)O; Chg = N[CH](C(=O)O)C1CCCCC1; X1 = C1CCC2(CC1)CCN(*)CC2; Dab = NCC[CH](N)C(=O)O; Bz = O=C(c1ccccc1)*

Assays:
[1] = tested on: Ras signaling pathway (Raf/ERK and PI3K/AKT); assay: Western blot of RAS signaling pathways in EGF-stimulated serum starved hTERT-RPE cells; type: cell-based, human; conditions: 50 μM, 0.5% DMSO, 2 h before EGF 50 ng/mL 10 min
Experimental: (§1) Cells were seeded in a media containing 10% FBS for 24 hours and were serum starved (0.5%) for the next 24 hours. Afterwards, they were incubated with different concentrations of the compounds for 2 hours. A successive treatment for 10 minutes with EGF (50 ng/mL) (Sigma-Aldrich) was performed in order to activate cell signaling.
Proteins were resolved by SDS-PAGE and transferred onto PVDF membranes (Immobilon-P, Millipore). Non-specific binding of the antibodies was assessed by incubating the membranes for 1 hour at room temperature with a buffer composed of 20 mM Tris-HCl pH 7.5, 150 mM NaCl, 0.05% Tween 20 and 5% bovine serum albumin. Protein expression was determined by probing the blots overnight at 4° C. with the specified antibodies:anti-c-RAF (BD Transduction 610151, 1:500); anti-phospho-c-RAF S338 (Cell Signaling 9427, 1:500); anti-PI3Kp110a (Cell Signaling 4249, 1:1000); anti-AKT (Cell Signaling 9272, 1:1000); anti-phospho-AKT S473 (Cell Signaling 4060, 1:1000); anti-phospho-AKT Thr308 (Cell Signaling 4056, 1:1000); anti-p44/42 MAPK (ERK1/2) (Cell Signaling 9102, 1:2000); anti-phospho-p44/42 MAPK(ERK1/2) T202/Y204 (Cell Signaling 4370, 1:2000); anti-GAP120 (Santa Cruz SC-63, 1:200); anti-HA (Sigma-Aldrich H6908, 1:1000); or anti-α-tubulin (Sigma-Aldrich T9026, 1:2000). Next, after washing the membranes they were incubated with the corresponding HRP-coupled secondary antibodies (goat anti-rabbit BioRad 170-6515 or goat anti-mouse BioRad 170-6516, 1:3000) for 60 minutes at room temperature and washed again. Protein detection was performed by enhanced chemiluminescence (EZ-ECL, Biological Industries). Emitted light was captioned and quantified (ChemiDoc, BioRad).
For analysis of RAS signalling, cells were lysed in a buffer containing 67 mM Tris-HCl pH 6.8 and 2% SDS and then the samples were heated at 97° C. for 15 minutes. After this, the protein concentration of the lysates was assayed using the Lowry method. An aliquot of 15 μg of protein per sample was loaded onto the gels.
GAP120 detection was used as control.
To consider a peptidomimetic as a positive hit, it should inhibit the activity of the two protein cascades, and as a consequence the phosphorylation of the RAF (P-RAF), AKT (P-AKT) and ERK (P-ERK) should not be observed.

[2] = Solubility in water at 5% DMSO; type: physicochemical
From the text: (§2) The methods used are well known and would be known to one of skill in the art. As a control, we evaluated the solubility in water which contained 5% DMSO to identify any possible issue related with a low solubility. Data are expressed as the mean±SD.

[3] = PAMPA assay; type: in vitro ADME; conditions: for Pe / Retention %: mean±SD
From the text: As part of our analysis, we evaluated IP-14-01, IP-14-03 and IP-14-08 and their biophysical properties by studying them using a solution of 5% DMSO in water. We conducted a permeability through biological barriers (PAMPA assay) and their internalization in SH-SY5Y cells.
as §2

[4] = tested on: pancreatic adenocarcinoma human cell lines (MPanc-96, HPAF-II, PA-TU-8902, SW1990, PA-TU 8988T, PANC-1); type: cell-based; conditions: for specificity cancer cells versus normal cells (cell viability): cancer cell lines versus hTERT-RPE, MTS
Experimental: (§3) Cells cultured in 10% FCS were treated with compound (I) in a dose range from 0 to 25 µM and incubated for 24 h, when cell viability was determined by MTS assay. Experiment was repeated 3 times. Differences were assessed using one-way ANOVA and Tukey Multiple Comparisons Test and considered significant when p≤0.05.
(§4) 10,000 cells in 50 μL of 10% FBS-containing medium, were cultured for 24 h and then treated with the drugs (50 μL final volume) for a further 24 h in each well of a 96-well plate (100 μL final volume). MTS viability assay (CellTiter 96® Aqueous One Solution Cell Proliferation Assay, Promega G3580) was performed following the manufacturer's specifications. The absorbance of each well was measured with a multimode plate reader (Spark, Tecan) at 490 nm. The percentage of cell viability was calculated by dividing the absorbance of each well by the average absorbance of the control wells (which had no significant deviation when Student's t-test was applied).
(§5) We next incubated IPR-473 at several concentrations with different cancer cell lines and a normal cell line (-hTERT-RPE cells). Cell viability was measured by a MTS cell proliferation assay. […] Cells were placed in a 96-well plate culture containing 10% FBS (Bilogical Industries)-containing medium. (10000 cell per well). These cells were then cultured for 24 hours and then treated with IPR-473 at concentrations of 10 μM, 15 μM, 20 μM and 25 μM for a further 24 hours incubation.
The different cell lines used included human pancreatic cancer cells MPANC-96, human pancreatic adenocarcinoma cells HPAF-II, human pancreatic grade II adenocarcinoma PA-TU, human pancreatic ductaladenocarcinoma SW1990, human pancreas adenocarcinoma 8988-T and human pancreatic ductal carcinoma PANC-1. Each of these comprises a pancreatic tumor cell line. The control as stated was hTERT-RPE cells and that are not cancerigenous.

[5] = Solubility in PBS with 15% β-cyclodextrin; type: physicochemical; conditions: 1 mM, 24 hours agitation, supernatant by HPLC; mean±SD
Experimental: xxxxx Furthermore, an additional effort was done to reevaluate those peptidomimetics from the first generation that were not soluble in the in vitro assay conditions or formed aggregates as described above when incubated with the RPE cells.
We then put these peptidomimetics under constant agitation for 24 hours. […] Data are expressed as the mean±SD.

[6] = target: T1, HA-KRASG12V with C-RAF or with PI3K (Homo sapiens, UniProt P01116, G12V); assay: Co-immunoprecipitation of HA-KRASG12V with C-RAF or PI3K in Hela cells; type: cell-based; conditions: 100 µM for 2 h, EGF 10 min, starved Hela cells expressing HA-KRASG12V
T1 construct: expressed in transfected cells; host or cells: HeLa cells, Lipofectamine 2000, plasmid pEF-HA-KRASG12V
Experimental: Immunoprecipitation was performed with anti-HA antibodies and Western blot of the bound (BO) and input (IN) fractions with anti-p110αPI3K and anti-C-RAF. Experiments were repeated at least three times.
as §1, with “h” for “hours”, “starved” for “starved (0.5%)”, “h.” for “hours.”, “min” for “minutes”, “ng/mL; Sigma-Aldrich)” for “ng/mL) (Sigma-Aldrich)”
HeLa cells were transfected with pEF-HA-KRASG12V plasmid, obtained as described in C. Lopez-Alcala et al. (“Identification of essential interacting elements in K-Ras/calmodulin binding and its role in K-Ras localization.”; J. Biol. Chem. 2008; April 18; 283(16):10621-31. doi: 10.1074/jbc.M706238200. Epub 2008 Jan. 8. PMID: 18182391). Lipofectamine®2000 Transfection Reagent (Invitrogen) was used as a transfection method following the manufacturer's instructions.
Cells were transfected with pEF-HA-KRASG12V plasmid for 24 h and starved for the next 24 h before treatment with the peptides and EGF. Next, an IP with anti-HA antibody crosslinked to agarose beads was performed. […]

[7] = tested on: hTERT-RPE cells; type: cell-based, human; conditions: at the concentrations of the tumor cell IC50 (approximately 20 μM), 24 h, MTS
Experimental: as §3, §4
as §5, with “These cells were then cultured for 24 hours and then treated with IPR-473 at concentrations of 10 μM, 15 μM, 20 μM and 25 μM for a further 24 hours incubation.” left out

Solubility (in words) [2]: good solubility | solubility [2]: 1333 ± 13 µM (≈ 974 µg/mL) | Transport % [3]: 0% | Pe [3]: 5.6e-10 ± 3.1e-10 cm/s | Retention % [3]: 55.7 ± 7.1%
Structure (SMILES): CC(NC(=O)C(CN)NC(=O)CCN(C)C(=O)C(Cc1ccc(-c2ccccc2)cc1)NC(=O)C(c1ccccc1)c1ccccc1)C(=O)N1CCCC1 (stereo not shown) [IP-14-01]
Inhibition of RAS-effectors protein cascades (P-RAF, P-AKT, P-ERK) by Western blot [1]: able to inhibit the two RAS-effectors protein cascades; also recorded: most potent inhibitor | specificity cancer cells versus normal cells (cell viability) [4]: did not show cell-line specificity

Structure (SMILES): NCCCCC(NC(=O)C(Cc1ccccc1)NC(=O)C(CC1CCCC1)NC(=O)c1c2ccccc2cc2ccccc12)C(=O)N1CCCC1 (stereo not shown) [IP-14-02]
Inhibition of RAS-effectors protein cascades (P-RAF, P-AKT, P-ERK) by Western blot [1]: able to inhibit the RAF and AKT but not ERK

Solubility (in words) [2]: good solubility | solubility [2]: 549 ± 90 µM (≈ 400 µg/mL) | Transport % [3]: 0% | Pe [3]: 1.6e-09 ± 3.6e-10 cm/s | Retention % [3]: 77.9 ± 2.4%
Structure (SMILES): CC(NC(=O)C(NC(=O)CCN(C)C(=O)C(CN)NC(=O)C(c1ccccc1)c1ccccc1)C1CCCCC1)C(=O)N1CCC2(CCCCC2)CC1 (stereo not shown) [IP-14-03]
Inhibition of RAS-effectors protein cascades (P-RAF, P-AKT, P-ERK) by Western blot [1]: able to inhibit the two RAS-effectors protein cascades

Conc. in PBS β-cyclodextrin 15% [5]: 780 ± 30 µM
Structure (SMILES): CC(C)CC(NC(=O)CCCN(C)C(=O)C(CCCN)NC(=O)C(Cc1cccc2ccccc12)NC(=O)c1c2ccccc2cc2ccccc12)C(=O)N1CCC2(CCCCC2)CC1 (stereo not shown) [IP-14-04]

Structure (SMILES): CC(C)CC(NC(=O)COc1ccc(C(C)(C)C)cc1)C(=O)NC(Cc1cccc2ccccc12)C(=O)NC(CCCCN)C(=O)N1CCCCC1 (stereo not shown) [IP-14-05]
Conc. in PBS β-cyclodextrin 15% [5]: 849 ± 43 µM

Conc. in PBS β-cyclodextrin 15% [5]: 766 ± 19 µM
Structure (SMILES): CCC(C)C(NC(=O)C(c1ccccc1)c1ccccc1)C(=O)NC(CCc1ccccc1)C(=O)NC(CCCCN)C(=O)N1CCC2(CCCCC2)CC1 (stereo not shown) [IP-14-07]

Structure (SMILES): CC(C)CC(NC(=O)C(Cc1ccccc1)NC(=O)C1CCCN1C(=O)C(CCN)NC(=O)c1ccccc1)C(=O)N1CCC2(CCCCC2)CC1 (stereo not shown) [IP-14-08] (Bz-[Dab]PFL-X1; configuration not given here)
Inhibition of RAS-effectors protein cascades (P-RAF, P-AKT, P-ERK) by Western blot [1]: able to inhibit the two RAS-effectors protein cascades | Solubility (in words) ([2]; water at 5% DMSO): good solubility | solubility ([2]; water at 5% DMSO, mean±SD, read-out: Solubility): 1320 ± 22 µM (≈ 942 µg/mL) | Transport % [3]: 0% | Pe [3]: 0 cm/s | Retention % [3]: 97.6 ± 5.0%

Conc. in PBS β-cyclodextrin 15% [5]: 949 ± 8 µM
Structure (SMILES): CC(C)CC(NC(=O)COc1ccc(C(C)(C)C)cc1)C(=O)NC(Cc1cccc2ccccc12)C(=O)NC(CN)C(=O)N1CCC2(CCCCC2)CC1 (stereo not shown) [IP-14-09]

Structure (SMILES): Cc1ccc(CC(NC(=O)C(c2ccccc2)c2ccccc2)C(=O)N(C)CCC(=O)NC(CC2CCCCC2)C(=O)NC(C(=O)N2CCCC2C(N)=O)C2CCCCC2)cc1 (stereo not shown) [IPR-471] (Diphenylacetyl-[Phe(4-Me)][NMeβAla][Cha][Chg]P-NH2; configuration not given here)
Inhibition of RAS-effectors protein cascades (P-RAF, P-AKT, P-ERK) by Western blot [1]: not better than IP-14-01

Structure (SMILES): CC(C)CC(NC(=O)C(CN)N(C)C(=O)CCN(C)C(=O)C(Cc1ccc(-c2ccccc2)cc1)NC(=O)C(c1ccccc1)c1ccccc1)C(=O)N1CCCC1 (stereo not shown) [IPR-473]
Inhibition of RAS-effectors protein cascades (P-RAF, P-AKT, P-ERK) by Western blot [1]: able to inhibit all the two different protein cascades (RAF/ERK and PI3K/AKT) more effectively than even IP-14-01; also recorded: highest degree of inhibition of the RAS effectors | specificity cancer cells versus normal cells (cell viability) [4]: high specificity for pancreatic cancer cell lines

Structure (SMILES): CC(O)C(NC(=O)CCN(C)C(=O)C(Cc1ccc(-c2ccccc2)cc1)NC(=O)C(c1ccccc1)c1ccccc1)C(=O)NC(C(=O)N1CCCC1)C1CCCCC1 (stereo not shown) [IPR-474]
Inhibition of RAS-effectors protein cascades (P-RAF, P-AKT, P-ERK) by Western blot [1]: not better than IP-14-01

IC50 ([4]; 24 h): ~20 µM
Structure (SMILES): CC(C)C[C@H](NC(=O)[C@H](CN)N(C)C(=O)CCN(C)C(=O)[C@H](Cc1ccc(-c2ccccc2)cc1)NC(=O)C(c1ccccc1)c1ccccc1)C(=O)N1CCCC1 [compound of formula (I), (S)-N-(3-(((S)-3-amino-1-((S)-4-methyl-1-oxo-1-(pyrrolidin-1-yl)pentan-2-ylamino)-1-oxopropan-2-yl)(methyl)amino)-3-oxopropyl)-3-(biphenyl-4-yl)-2-(2,2-diphenylacetamido)-N-methylpropanamide]
PI3K and c-RAF1 interaction with KRAS (co-immunoprecipitation) [6]: reduced PI3K and c-RAF1 interaction with KRAS | normal cells affected [7]: less than 5%
